Measurements reported in patent publication US12036237B2, “Bromide source for use in treating autism spectral disorder” (INSERM (INSTITUT NATIONAL DE LA SANTE ET DE LA RECHERCHE …, priority 2016, dated 2024).
“Also recorded” adds a separate entry of the source.

What was measured:
[1] = test system: Fmr1−/− mice; assay: Direct social interaction test; assay type: in vivo
Protocol: (§1) Sodium bromide (anhydrous, Sigma-Aldrich, Saint-Quentin, France) dissolved in saline solution (NaCl, 0.9%) at the dose of 250 or 500 mg/kg, or vehicle (NaCl, 0.9%), was administered intraperitoneally once a day for 19 days in a volume of 20 ml/kg. On testing days, bromide was administered 30 min before behavioural assays. Bumetanide (Tocris, provided by Bio-Techne, Lille, France) dissolved in NaCl 0.9% at the dose of 0.5 mg/kg (Deidda et al, 2015) or vehicle was administered intraperitoneally once a day for 19 days in a volume of 20 ml/kg.
(§2) Behavioural assays started after a week of daily bromide (or bumetanide) treatment.
(§3) Direct social interaction.

[2] = test system: Shank3B−/− mice; assay: Direct social interaction test; assay type: in vivo
Protocol: as §1, §2, §3

[3] = test system: Fmr1−/− mice; assay: Three-chamber social novelty preference test; assay type: in vivo; conditions: bromide 250 mg/kg i.p. daily
Protocol: as §1, §2
(§4) Three-chamber social novelty preference test.

[4] = test system: Shank3B−/− mice; assay: Three-chamber social novelty preference test; assay type: in vivo; conditions: bromide 250 mg/kg i.p. daily
Protocol: as §1, §2, §4

[5] = test system: Fmr1−/− mice; assay: Motor stereotypies scoring; assay type: in vivo; conditions: bromide 250 mg/kg i.p. daily
Protocol: as §1, §2

[6] = test system: Shank3B−/− mice; assay: Motor stereotypies scoring; assay type: in vivo; conditions: bromide 250 mg/kg i.p. daily
Protocol: as §1, §2

[7] = test system: Fmr1−/− mice; assay: Y-maze exploration; assay type: in vivo; conditions: bromide 250 mg/kg i.p. daily
Protocol: as §1, §2

[8] = test system: Shank3B−/− mice; assay: Y-maze exploration; assay type: in vivo; conditions: bromide 250 mg/kg i.p. daily
Protocol: as §1, §2

[9] = test system: Fmr1−/− mice; assay: Marble burying test; assay type: in vivo; conditions: Fmr1−/− and Fmr1+/+ mice; bromide 250 mg/kg i.p. daily
Protocol: as §1, §2

[10] = test system: Fmr1−/− mice; assay: Novelty-suppressed feeding test; assay type: in vivo; conditions: bromide 250 mg/kg i.p. daily
Protocol: as §1, §2
(§5) Novelty-suppressed feeding. […] Immediately after an eating event, the mouse was transferred back to the home cage (free from cage-mates) and allowed to feed on lab chow for 5 min.

[11] = test system: Shank3B−/− mice; assay: Novelty-suppressed feeding test; assay type: in vivo; conditions: bromide 250 mg/kg i.p. daily
Protocol: as §1, §2, §5

[12] = test system: Oprm1−/− mice; assay: Y-maze exploration
[13] = test system: Oprm1−/− mice; assay: Marble burying test; conditions: bromide 125, 250, 500 mg/kg i.p. daily
[14] = test system: Oprm1−/− mice; assay: Direct social interaction test
[15] = test system: Oprm1−/− mice; assay: Novelty-suppressed feeding test; conditions: for latency to feed: Oprm1 wild-type and null mice, bromide 250, 500 mg/kg
[16] = test system: Oprm1−/− mice; assay: Three-chamber social novelty preference test; conditions: bromide 125, 250, 500 mg/kg i.p. daily vs saline
[17] = social interaction and three-chamber tests, bromide 250 mg/kg
[18] = Example 2, Oprm1−/− mice, bromide 250, 500 mg/kg
[19] = Example 2, Oprm1−/− mice, bromide 250, 500 mg/kg i.p. daily
[20] = Example 2, male and female Oprm1−/− mice, bromide 250, 500 mg/kg
[21] = Oprm1−/− mice, bromide 125, 250, 500 mg/kg i.p. daily vs saline
[22] = Oprm1−/− mice, bumetanide 0.5 mg/kg

With `[Br-].[Na+]` [bromide, Sodium bromide] the “number of following episodes” value ([1]; bromide 250 mg/kg i.p. daily) was “normalized”, the “number of grooming episodes” value ([1]; bromide 250 mg/kg i.p. daily) was “reduced” and the “number of grooming episodes occurring after a social contact” value ([1]; bromide 250 mg/kg i.p. daily) was “reduced”. For the same compound, the “number of, time spent in and duration of paw contacts” value ([1]; bromide 250 mg/kg i.p. daily) was “normalized”, the “time spent in nose contact and duration of nose contacts” value ([1]; bromide 250 mg/kg i.p. daily) was “normalized” and the “time spent in social contact” value ([1]; bromide 250 mg/kg i.p. daily) was “normalized”. The “sociability parameters (overall)” value [1, 17] was “efficiently restores”, the “number of following episodes” value ([2]; bromide 250 mg/kg i.p. daily) was “restored to wild-type levels; also recorded: reduced” and the “number of grooming episodes” value ([2]; bromide 250 mg/kg i.p. daily) was “reduced”. For the same compound, the “number of grooming episodes occurring after a social contact” value ([2]; bromide 250 mg/kg i.p. daily) was “reduced”, the “number of, time spent in and duration of paw contacts” value ([2]; bromide 250 mg/kg i.p. daily) was “restored to wild-type levels; also recorded: reduced” and the “time spent in nose contact, number and duration of nose contacts” value ([2]; bromide 250 mg/kg i.p. daily) was “restored to wild-type levels; also recorded: reduced”. The “sociability parameters (overall)” value [2, 17] was “efficiently restores”, the “number of close contacts with the mouse” value ([3]; Fmr1 knockout or wild-type) was “no significant effect” and the “preferential time spent in the compartment with the mouse” value ([3]; Fmr1 knockout or wild-type) was “no significant effect”. The “duration of close contacts with the mouse versus the toy” value ([3]; Fmr1−/− mice) was “increased; also recorded: restored”, the “preference in time spent in close contact with the mouse versus the toy” value ([3]; Fmr1−/− mice) was “increased; also recorded: restored” and the “number of close contacts with the mouse versus the toy” value ([4]; Shank3B line) was “no significant effect”. The “preferential time spent in the compartment with the mouse versus the toy” value ([4]; Shank3B line) was “no significant effect”, the “duration of close contacts with the mouse versus the toy” value ([4]; Shank3B−/− mice) was “increased; also recorded: restored” and the “preference in time spent in close contact with the mouse versus the toy” value ([4]; Shank3B−/− mice) was “increased; also recorded: restored”. The “number of rearing, grooming or burying episodes” value ([5]; Fmr1 knockout and wild-type) was “no effect”, the “motor stereotypies (overall)” value ([5]; Fmr1−/− mice) was “efficiently reduced; also recorded: relieves” and the “number of circling episodes” value ([5]; Fmr1−/− mice) was “normalized; also recorded: reduced”. For the same compound, the number of shakes ([5]; Fmr1−/− mice) was “normalized; also recorded: reduced”, the “duration of burying events” value ([5]; all animals (Fmr1 line)) was “reduced” and the time spent burying ([5]; all animals (Fmr1 line)) was “reduced”. The “number of rearing episodes” value ([6]; Shank3B−/− and wild-type) was “no effect”, the “motor stereotypies (overall)” value ([6]; Shank3B−/− mice) was “efficiently reduced; also recorded: relieves” and the “number of circling episodes” value ([6]; Shank3B−/− mice) was “normalized; also recorded: reduced”. The “number of grooming episodes” value ([6]; Shank3B−/− mice) was “normalized”, the number of shakes ([6]; Shank3B−/− mice) was “normalized; also recorded: reduced” and the “perseverative same arm returns (cognitive stereotypies)” value (shortened to “perseverative same arm returns”) [7] was “efficiently reduced; also recorded: relieves; also recorded: suppressed”. For the same compound, the “rate of alternate arm returns” value ([8]; Shank3B line) was “not modified”, the “perseverative same arm returns” value ([8]; Shank3B−/− mice) was “normalized; also recorded: relieves; also recorded: suppressed” and the “rate of spontaneous alternation” value ([8]; Shank3B−/− mice) was “rescued”. For the same compound, the “number of marbles buried” value [9] was “reduced”, the “food intake back in the home cage” value ([10]; Fmr1 line) was “did not modify” and the “exacerbated anxiety (overall)” value ([10]; Fmr1−/− mice) was “can reduce”. For the same compound, the feeding latency ([10]; Fmr1−/− mice) was “reduced the feeding latency to wild-type level; also recorded: decreased”, the “food intake back in the home cage” value ([11]; Shank3B mutants) was “did not rescued” and the “exacerbated anxiety (overall)” value ([11]; Shank3B−/− mice) was “can reduce”. For the same compound, the feeding latency ([11]; Shank3B−/− mice) was “normalized”, the “ratio of same arm returns (cognitive stereotypies, perseveration)” value [12, 18] was “normalized; also recorded: relieved; also recorded: abolished” and the spontaneous alternation [12, 18] was “restored”. For the same compound, the “number of arm entries (index of general locomotor activity)” value ([12]; Example 2, both genotypes and genders, bromide 250 mg/kg) was “increased”, the “number of alternate arm returns” value ([12]; Example 2, more in mutants than wild-type, more in females than males) was “increased; also recorded: tendency to increase” and the “rate of alternate arm returns” value ([12]; Oprm1−/− and wild-type, bromide 125, 250, 500 mg/kg i.p. daily) was “increasing the rate”. For the same compound, the “perseverative same arm returns” value ([12]; Oprm1−/− mice, bromide 125, 250, 500 mg/kg i.p. daily) was “efficiently reduced; also recorded: demonstrated efficacy in reducing; also recorded: dose-dependently decreased; also recorded: significant decrease”, the “number of marbles buried” value [13] was “reduced; also recorded: diminished” and the “number of nose contacts and following episodes” value ([14]; Example 2, FIG. 13A, male mutants, both doses) was “increased”. The “total amount of time spent in social contact” value ([14]; Example 2, FIG. 13A, male wild-type and knockout mice) was “increased”, the “total time in social contact, number of nose contacts and following episodes” value ([14]; Example 2, FIG. 13B, female mutant mice only, dose dependent) was “increased” and the “number of rearing episodes (activity)” value ([14]; Example 2, Oprm1 null mice, bromide 250 mg/kg, more in males than females) was “increased”. The “social interaction (overall)” value [14, 18] was “able to restore social interaction”, the “number of following episodes” value [14, 19] was “increasing” and the “number, time spent in and duration of nose and paw contacts” value [14, 19] was “increasing”. For the same compound, the “time spent in close contact” value [14, 19] was “increasing”, the “gender influence on the increase of social interaction parameters” value ([14]; Example 2, Oprm1−/− mice, effects since 250 mg/kg in males, only at the highest dose in females) was “more significantly in males than in females” and the “duration of grooming episodes” value [14, 20] was “reduced”. The “number of grooming episodes” value [14, 20] was “reduced”, the “number of grooming episodes occurring immediately after a close contact” value [14, 20] was “reduced” and the time spent grooming [14, 20] was “reduced”. For the same compound, the “direct social interaction (overall)” value [14, 21] was “can restore direct social interaction; also recorded: significantly improved social interaction; also recorded: increased direct social interaction”, the “number of following episodes” value [14, 21] was “dose-dependently increasing; also recorded: increased” and the “number of grooming episodes” value [14, 21] was “reduced”. The “number of grooming episodes occurring immediately after a social contact” value [14, 21] was “reduced”, the “number, time spent in and duration of nose and paw contacts” value [14, 21] was “dose-dependently increasing; also recorded: increased” and the “total time spent in social contact” value [14, 21] was “dose-dependently increasing; also recorded: increased”. For the same compound, the “efficiency on social interaction parameters in male compared with female mice” value ([14]; Oprm1−/− mice, bromide 250 and 500 mg/kg i.p. daily) was “more efficient in increasing social interaction parameters”, the “increases in social contact time, nose contacts, following episodes and paw contacts, bromide compared with bumetanide” value [14, 22] was “bigger increases” and the “suppressive effects on grooming episodes incl. those after a social contact, bromide compared with bumetanide” value [14, 22] was “comparable”. The “beneficial effects on sociability, bromide compared with bumetanide” value ([14]; Oprm1−/− mice, social interaction and three-chamber tests, bumetanide at 0.5 mg/kg, 0.5 mg/kg) was “more significant; also recorded: superior efficacy”, the “food intake in home cage” value ([15]; Example 2, Oprm1 mutants) was “increased food intake in mutants” and the latency to feed ([15]; Example 2) was “drastically reduced”. For the same compound, the latency to feed ([15]; Example 2, listed as Bromide) was “decreased in wild-type, and normalized in mu opioid receptor null mice”, the “gender influence on latency to feed” value ([15]; Example 2, bromide 250 mg/kg) was “more effective in males than in females” and the “dose at which the maximal effect on latency to feed was reached” value ([15]; Example 2, female Oprm1 null mice) was 500 mg/kg. The “food intake in home cage” value ([15]; Example 2, female wild-type animals, bromide 250 mg) was “ate more than saline-treated animals”, the “dose at which the maximal effect on latency to feed was reached” value ([15]; Example 2, male Oprm1 null mice) was 250 mg/kg and the feeding latency ([15]; Oprm1−/− mice, bromide, all three doses (125, 250, 500 mg/kg)) was “efficiently reduced the feeding latency to wild-type level; also recorded: normalized”. The “behavioural signs of anxiety (overall)” value ([15]; Oprm1−/− mice, marble burying and novelty-suppressed feeding, bromide 125, 250, 500 mg/kg) was “efficiently reduced; also recorded: relieved”, the “food intake back in the home cage” value ([15]; wild-type and mutant mice, bromide 125, 250, 500 mg/kg i.p. daily) was “increased” and the “difference (mouse over toy) in nose (close) contact duration” value [16] was “restored difference”. The “difference (mouse over toy) in number of nose (close) contacts” value [16] was “restored difference”, the “difference (mouse over toy) in time spent in nose (close) contact” value [16] was “restored difference” and the “difference (preference for the mouse over the toy) in time spent in compartments” value [16] was “restored difference”. For the same compound, the “social preference (overall)” value [16] was “restored social preference; also recorded: increased social preference; also recorded: restored preference for the living mouse over the toy”.
